The text below walks through data of patent publication US7208176B2, “Drug delivery device containing neuraminidase inhibitor and an H1 antagonist” (Osmotica Corp., priority 2001, dated 2007).

For data set [1] the following is noted: cited from earlier work.
The nature of another data set: in vivo. Particulars: po.
For data set [2] the following is noted: cited from earlier work. This is another data set of the same source.

Some results are limits rather than exact numbers.

Take `CCC(CC)O[C@@H]1C=C(C(=O)O)C[C@H](N)[C@H]1NC(C)=O` [Active metabolite of oseltamivir, oseltamivir carboxylate]: the “steady-state plasma trough concentrations versus minimum inhibitory concentration” value in data set [1] (75 mg twice daily) was “remain above the minimum inhibitory concentration for all influenza strains tested”. Also, the “metabolite clearance in renal impairment” value in data set [1] (human, in vivo) is listed as “decreases linearly with creatinine clearance”. Besides, in data set [1] (in vivo, po), the “absolute bioavailability of the active metabolite” value is listed as “about 80%”, the “time to maximal concentrations” value was 3 to 4 h and the “time until detectable in plasma” value was ≤ 30 min. For the same molecule, in data set [1] (in vivo), the accumulation result is on record as “less than 2 fold”; the apparent half-life was 6 to 10 h; the “exposure at steady state, higher in elderly compared with young individuals” value was “approximately 25%”; the “time to steady-state plasma concentrations” value is ≤ 3 days. Besides, in the data set “in vivo”, the Tmax amounted to 8 h and the half-life is 14 h.
With `CCOC(=O)C1=C[C@@H](OC(CC)CC)[C@H](NC(C)=O)[C@@H](N)C1` [Oseltamivir, reference compound], the “absorption and conversion after oral administration” value in data set [1] (oral, G. He et al.) is “readily absorbed from the gastrointestinal tract and extensively converted to the active metabolite”. In addition, in the data set “in vivo”, the Tmax is 3 h and the half-life was in the range of 5 to 7 h.
As to `CC(=O)N[C@H]1[C@H]([C@H](O)[C@H](O)CO)OC(C(=O)O)=C[C@@H]1N=C(N)N` [zanamivir, 4-guanidino-2,4-dideoxy-2,3-dehydro-N-acetylneuraminic acid], the median serum half-life in data set [2] (Cass et al.) is 2.5 and 5.05 hours. Moreover, in data set [2] (in vivo), the “dose systemically absorbed (median)” value is listed as 10 to 20%, the “excreted unchanged in the urine” value is on record as “approximately 90%”, the “time to maximum serum concentrations” value is 1 to 2 h and the tolerability result is on record as “well tolerated at all doses”.

What is called Tmax is the time from dosing to the highest level. The term half-life denotes the time in which the quantity being followed falls by half. A higher half-life goes with slow loss.
